Reference: patent US6984513B2, “Anaerobe targeted enzyme-mediated prodrug therapy” (priority 1994, dated 2006)

Key:
[1] = cited from earlier work
SCCVII cells = test: Growth inhibition of SCCVII cells by 5-FC or 5-FU with or without cell extract from recombinant C. sporogenes
Protocol: The function of the C. sporogenes-derived cytosine deaminase was tested by assaying its ability to convert the nontoxic 5-fluorocytosine (5-FC) to the toxic 5-fluorouracil (5-FU).

Walker 256 rat carcinoma = conditions: cited from earlier work
[2] = target: nitroreductase enzyme from E. coli (Escherichia coli, UniProt P38489); conditions: cited from earlier work
[3] = test system: mouse and human tumor cell lines; conditions: cited from earlier work
Walker carcinoma cells = conditions: cited from earlier work
SCCVII tumor cells = test: Cell killing of SCCVII cells exposed to CB1954, NADH and supernatant from wild type or recombinant C. acetobutylicum (colony growth); conditions: 2 hr incubation, NADH 500 μM
Protocol: The ability of recombinant C. acetobutylicum to activate CB1954 was also tested in vitro, also as described in Example 1. Briefly, recombinant and wild type C. acetobutylicum were inoculated into medium, and after overnight incubation, the cultures were centrifuged and the supernatant collected. The supernatant was added to cultures of SCCVII tumor cells, along with addition of various concentrations of CB1954 in DMSO. After incubation for two hours, the cells were counted by hemocytometer, and appropriate dilutions plated and incubated for colony growth.
In order to test the ability of recombinant C. acetobutylicum to activate CB1954, recombinant and wild type C. acetobutylicum were inoculated into 20 ml of medium. After overnight incubation, the cultures were centrifuged and the supernatant collected and diluted 1:3 with Waymouth's growth medium. […] To these cultures, different concentrations of CB1954 in DMSO were added, and the amount of DMSO adjusted in all of the cultures (including the controls) to 1% DMSO. Controls consisted of cell culture with only the supernatant/cell culture medium mixture. […]
After a 2 hr incubation in air at 37° C., the medium was removed, all the plates were washed 3 times with PBS, trypsinized, the cells counted by hemocytometer, and appropriate dilutions plated and incubated for 10 days in a 5% CO2 incubator at 370 C for colony growth.

[4] = prodrug alone; cited from earlier work
[5] = test system: human breast and ovarian cancer cells; conditions: cited from earlier work

nitroreductase enzyme from E. coli, sequence (P38489 whole entry): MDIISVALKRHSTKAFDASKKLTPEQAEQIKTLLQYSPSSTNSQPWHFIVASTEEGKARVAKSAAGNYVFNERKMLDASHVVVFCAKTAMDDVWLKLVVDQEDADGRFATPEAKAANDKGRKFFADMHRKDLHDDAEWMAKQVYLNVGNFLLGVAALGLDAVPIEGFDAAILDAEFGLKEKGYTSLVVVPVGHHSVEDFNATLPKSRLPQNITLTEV

O=C(O)[C@H]1O[C@@H](n2cc(F)c(=O)[nH]c2=O)[C@H](O)[C@@H](O)[C@@H]1O [1-N-β-glucuronide of 5-fluorouracil]
stability in vivo [1]: stable in vivo

Nc1nc(=O)[nH]cc1F [5-FC, 5-fluorocytosine]
effect of cell extract from C. sporogenes transformed with an empty vector on sensitivity (SCCVII cells): did not affect the sensitivity | toxicity of 5-FC plus cell extract from recombinant C. sporogenes compared with 5-FU (SCCVII cells): same toxicity as 5-FU | increase in cytotoxicity of 5-FC by cell extract from recombinant C. sporogenes expressing cytosine deaminase (factor) (SCCVII cells; cell extract 5, 10, 20 μg/ml): 10^4

O=c1[nH]cc(F)c(=O)[nH]1 [5-FU, 5-fluorouracil]
effect of cell extract from recombinant C. sporogenes on sensitivity to 5-FU (SCCVII cells): nor did cell extract from recombinant C. sporogenes affect sensitivity to 5-FU

NC(=O)c1cc(N2CC2)c([N+](=O)[O-])cc1[N+](=O)[O-] [CB1954, 5-[aziridine-1-yl]-2,4-dinitrobenzamide]
activity against Walker 256 rat carcinoma in vivo (Walker 256 rat carcinoma): potent activity | rate of reduction of CB1954 relative to that of the rat DT diaphorase [2]: 60 times | activity against a range of mouse and human tumor cell lines [3]: poor activity | difference in sensitivity between rat and human cells (factor) [3]: 10^4-10^5 | activity on Walker carcinoma cells in vitro (Walker carcinoma cells): potent activity | enhancement of the toxicity of CB1954 by supernatant from transformed C. acetobutylicum (SCCVII tumor cells): approximately 10 fold

butylated ammonium salt of the glucuronide conjugate of hydroxyanaline mustard
potency relative to hydroxyanaline mustard (times less potent) [4]: 10^3 times

glucuronide conjugate of epirubicin
toxicity when combined with a Mab-β-glucuronidase conjugate [5]: as toxic as epirubicin | toxicity of the prodrug (fold less toxic) ([5]; prodrug alone): approximately 100 fold
